Reference: US6706709B2, “Indolinone derivatives as protein kinase/phosphatase inhibitors” (Sugen, Inc., priority 2000, dated 2004)
pIC50: −log10 of the molar value.

Tests used:
[1] = target: T1, EGF Receptor (Homo sapiens, UniProt P00533); assay: bio EGF (EGF Receptor ELISA); type: biochemical
T1 construct: expressed in transfected cells; host or cells: NIH 3T3/C7 (mouse fibroblasts engineered to express human EGF-R)
Description: EGF Receptor kinase activity in cells genetically engineered to express human EGF-R was measured as described below:
The following materials and reagents were used:
b. 05-101 (UBI) (a monoclonal antibody recognizing an EGFR extracellular domain).
c. Anti-phosphotyrosine antibody (anti-Ptyr) (polyclonal).
d. Detection antibody: Goat anti-rabbit lgG horse radish peroxidase conjugate, TAGO, Inc., Burlingame, Calif.
Keep solution in dark at 4° C. until used.
The following protocol was used:
1. […] Coated plates are good for up to 10 days when stored at 4° C.
2. On day of use, remove coating buffer and replace with blocking buffer (5% Carnation Instant Non-Fat Dry Milk in PBS). Incubate the plate, shaking, at room temperature (about 23° C. to 25° C.) for 30 minutes. Just prior to use, remove blocking buffer and wash plate 4 times with TBST buffer.
2. Choose dishes having 80-90% confluence for the experiment. Trypsinize cells and stop reaction by adding 10% CS DMEM medium. Suspend cells in DMEM medium (10% CS DMEM medium) and centrifuge once at 1000 rpm at room temperature for 5 minutes.
3. Resuspend cells in seeding medium (DMEM, 0.5% bovine serum), and count the cells using trypan blue. Viability above 90% is acceptable. Seed cells in DMEM medium (0.5% bovine serum) at a density of 10,000 cells per well, 100 μL per well, in a 96 well microtiter plate. Incubate seeded cells in 5% CO2 at 37° C. for about 40 hours.
1. Check seeded cells for contamination using an inverted microscope. Dilute drug stock (10 mg/ml in DMSO) 1:10 in DMEM medium, then transfer 5 μL to a test well for a final drug dilution of 1:200 and a final DMSO concentration of 1%. Control wells receive DMSO alone. Incubate in 5% CO2 at 37° C. for one hour.
2. Prepare EGF ligand: dilute stock EGF in DMEM so that upon transfer of 10 μL dilute EGF (1:12 dilution), 25 nM final concentration is attained.
3. Prepare fresh 10 ml HNTG* sufficient for 100 μL per well wherein HNTG* comprises: HNTG stock (2.0 mL), milli-Q H2O (7.3 mL), EDTA, 100 mM, pH 7.0 (0.5 mL), Na3VO4 0.5 M (0.1 mL) and Na4(P2O7), 0.2 M (0.1 mL).
5. After two hours incubation with drug, add prepared EGF ligand to cells, 10 μL per well, to yield a final concentration of 25 nM. Control wells receive DMEM alone. Incubate, shaking, at room temperature, for 5 minutes.
6. Remove drug, EGF, and DMEM. Wash cells twice with PBS. Transfer HNTG* to cells, 100 μL per well. Place on ice for 5 minutes. Meanwhile, remove blocking buffer from other ELISA plate and wash with TBST as described above.
7. With a pipette tip securely fitted to a micropipettor, scrape cells from plate and homogenize cell material by repeatedly aspirating and dispensing the HNTG* lysis buffer. Transfer lysate to a coated, blocked, and washed ELISA plate. Incubate shaking at room temperature for one hour.
8. Remove lysate and wash 4 times with TBST. Transfer freshly diluted anti-Ptyr antibody to ELISA plate at 100 μL per well. Incubate shaking at room temperature for 30 minutes in the presence of the anti-Ptyr antiserum (1:3000 dilution in TBST).
9. Remove the anti-Ptyr antibody and wash 4 times with TBST. Transfer the freshly diluted TAGO 30 anti-rabbit IgG antibody to the ELISA plate at 100 μL per well. Incubate shaking at room temperature for 30 minutes (anti-rabbit IgG antibody: 1:3000 dilution in TBST).
10. Remove detection antibody and wash 4 times with TBST. Transfer freshly prepared ABTS/H2O2 solution to ELISA plate, 100 μL per well. Incubate at room temperature for 20 minutes. ABTS/H2O2 solution: 1.2 μL 30% H2O2in 10 mL ABTS stock.
11. Stop reaction by adding 50 μL 5N H2SO4 (optional), and determine O.D. at 410 nm.
12. The maximal phosphotyrosine signal is determined by subtracting the value of the negative controls from the positive controls. The percent inhibition of phosphotyrosine content for extract-containing wells is then calculated, after subtraction of the negative controls.

[2] = target: GST-Flk1 (UniProt P35918); assay: GST-FLK-1 bioassay (bio flkGST); type: biochemical
Description: This assay analyzes the tyrosine kinase activity of GST-Flk1 on poly glu tyr peptides.
2. poly glu tyr 4:1, lyophilizate (Sigma Catalog # P0275). Prepare 1 mg/mL poly glu tyr in sterile PBS and store in 1 ml aliquots at −20° C.
3. Preparation of poly glu tyr (pEY) coated assay plates: Coat 2 μg/well of poly glu tyr (pEY) in 100 μL PBS at room temperature for 2 hours or at +4° C. overnight. Cover plates well to prevent evaporation.
4. PBS Buffer: To make 1 liter of a 1× working solution, mix […], 1.15 g NA2HPO4, 0.2 g KCl and 8 g NaCl in approx. 900 mL dH2O. When all reagents have dissolved, adjust the pH to 7.2 with HCl. Bring total volume to 1L with dH2O.
5. PBS-Tw Buffer: To 1L of PBS Buffer, add […] Tween-20. Stir until dissolved.
6. TBB-Blocking Buffer: To make one liter of a 1× working solution, mix 1.21 g TRIS, 8.77 g NaCl, 1 mL TWEEN-20 in approximately 900 mL dH2O. Adjust pH to 7.2 with HCl. Add 10 g BSA, stir to dissolve. Bring total volume to 1 L with dH2O. Filter to remove particulate matter.
7. 1% BSA in PBS: To make a 1× working solution, add 10 g BSA to approx. 990 mL PBS buffer, stir to dissolve. Adjust total volume to 1 L with PBS buffer, filter to remove particulate matter.
9. GST-Flk1cd purified from sf9 recombinant baculovirus transformation.
13. Kinase Dilution Buffer (KDB): Mix 10 mL Hepes (pH 7.5), 1 mL of 5 M NaCl, 40 μL of 100 mM NaVO4 and 0.4 mL of 5% BSA in dH2O with 88.56 mL of dH2O.
14. NUNC-96-well V bottom polypropylene plates Applied Scientific Catalog # AS-72092
15. EDTA: Mix 14.12 g ethylenediaminetetraacetic acid (EDTA) to approx. 70 mL dH2O. Add 10N NaOH until EDTA dissolves. Adjust pH to 8.0. Adjust total volume to 100 mL with dH2O.
16. 1° Antibody Dilution Buffer: Mix 10 mL of 5% BSA in PBS buffer with 89.5 mL TBSTw.
17. Anti-phosphotyrosine monoclonal conjugated to horseradish peroxidase (PY99 HRP, Santa Cruz Biotech).
18. 2,2′-Azino-bis(3-ethylbenzthiazoline-6-sulfonic acid (ABTS, Moss, Cat. No. ABST).
1. Coat Corning 96 well ELISA plates with 2 μg of polyEY peptide in sterile PBS as described in step 3 of Materials and Reagents.
2. Remove unbound liquid from wells by inverting plate. Wash once with TBSTw. Pat the plate on a paper towel to remove excess liquid.
3. Add 100 μL of 1% BSA in PBS to each well. Incubate, with shaking, for 1 hr. at room temperature.
5. Soak wells with 50 mM Hepes pH7.5 (150 μL/well).
6. Dilute test compound with dH2O/4% DMSO to 4 times the desired final assay concentration in 96-well polypropylene plates.
7. Add 25 μL diluted test compound to ELISA plate.
8. Add 25 μL of 40 mM MnCl2 with 4×ATP (2 μM) to all wells.
9. Add 25 μL 0.5 M EDTA to negative control wells.
10. Dilute GST-Flk1 0.005 μg (5 ng)/well in KDB. For 50 ml KDB add 100 μL of 0.050 mg/mL GST-Flk1 enzyme.
11. Add 50 μL of diluted enzyme to each well.
12. Incubate, with shaking, for 15 minutes at room temperature.
13. Stop reaction by adding 50 μL of 250 mM EDTA (pH 8.0).
14. Wash 3× with TBSTw and pat plate on paper towel to remove excess liquid.
15. Add 100 μL per well anti-phosphotyrosine HRP conjugate, 1:5,000 dilution in antibody dilution buffer. Incubate, with shaking for 90 min. at room temperature.
16. Wash as described above in step 14.
17. Add 100 μL of room temperature ABTS solution to each well.
18. Incubate, with shaking, for 10 to 15 minutes. Remove any bubbles.
19. Stop reaction by adding 20 μL of 10% SDS.
20. Read assay on Dynatech MR7000 ELISA reader: test filter at 410 nM; reference filter at 630 nM.

T1 sequence (P00533 25-1210): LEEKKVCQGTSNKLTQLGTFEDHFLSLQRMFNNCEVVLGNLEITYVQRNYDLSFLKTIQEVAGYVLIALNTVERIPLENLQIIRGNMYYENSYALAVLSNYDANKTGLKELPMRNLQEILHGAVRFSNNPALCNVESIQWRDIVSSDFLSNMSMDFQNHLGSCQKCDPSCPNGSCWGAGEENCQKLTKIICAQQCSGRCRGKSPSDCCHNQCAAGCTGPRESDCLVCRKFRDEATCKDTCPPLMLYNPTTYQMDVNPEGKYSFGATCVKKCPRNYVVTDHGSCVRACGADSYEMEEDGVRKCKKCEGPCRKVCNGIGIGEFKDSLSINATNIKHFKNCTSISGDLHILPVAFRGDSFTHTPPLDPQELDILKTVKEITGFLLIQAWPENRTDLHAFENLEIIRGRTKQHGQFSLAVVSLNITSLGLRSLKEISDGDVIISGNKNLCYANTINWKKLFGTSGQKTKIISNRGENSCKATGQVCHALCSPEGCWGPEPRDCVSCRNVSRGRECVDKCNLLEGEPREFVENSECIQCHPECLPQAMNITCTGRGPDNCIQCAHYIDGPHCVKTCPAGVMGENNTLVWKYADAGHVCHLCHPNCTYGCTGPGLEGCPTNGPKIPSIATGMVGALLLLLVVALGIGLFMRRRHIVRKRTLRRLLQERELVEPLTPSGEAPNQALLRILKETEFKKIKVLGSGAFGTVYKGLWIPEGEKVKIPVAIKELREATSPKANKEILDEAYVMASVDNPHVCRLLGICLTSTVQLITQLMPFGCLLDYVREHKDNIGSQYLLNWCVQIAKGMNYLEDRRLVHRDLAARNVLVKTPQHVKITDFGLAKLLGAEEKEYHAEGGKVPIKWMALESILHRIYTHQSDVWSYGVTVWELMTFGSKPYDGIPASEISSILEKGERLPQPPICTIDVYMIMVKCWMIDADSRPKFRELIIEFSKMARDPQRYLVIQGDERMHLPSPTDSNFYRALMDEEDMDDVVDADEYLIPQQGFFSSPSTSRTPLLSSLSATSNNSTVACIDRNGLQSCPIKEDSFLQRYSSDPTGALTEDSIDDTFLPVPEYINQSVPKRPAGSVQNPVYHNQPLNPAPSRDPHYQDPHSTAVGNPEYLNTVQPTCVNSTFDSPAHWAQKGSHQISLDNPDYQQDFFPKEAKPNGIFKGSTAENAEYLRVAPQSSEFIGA

pIC50 [1]	pIC50 [2]	Compound
5.54	7.52	CCN(CC)CCCc1ccc2[nH]c(C=C3C(=O)Nc4ccc(Br)cc43)cc2c1 [IN-002, 5-bromo-3-[5-(3-diethylamino-propyl)-1H-indol-2-ylmethylene]-1,3-dihydro-indol-2-one]
< 4.70	< 5.00	O=C1Nc2cc(-c3ccc(F)cc3)ccc2C1=Cc1cc2cc(OCCN3CCOCC3)ccc2[nH]1 [IN-038, 6-(4-fluoro-phenyl)-3-[5-(2-morpholin-4-yl-ethoxy)-1H-indol-2-ylmethylene]-1,3-dihydro-indol-2-one]
4.36	8.52	O=C1Nc2ccc(Br)cc2C1=Cc1cc2cc(OCCN3CCCC3)ccc2[nH]1 [IN-014, 5-bromo-3-[5-(2-pyrrolidin-1-yl-ethoxy)-1H-indol-2-ylmethylene]-1,3-dihydro-indol-2-one]
–	4.93	NS(=O)(=O)c1ccc2c(c1)C(=Cc1c[nH]c3ccccc13)C(=O)N2 [IN-065, 3-(1H-indol-3-ylmethylene)-2-oxo-2,3-dihydro-1H-indole-5-sulfonic acid amide]
< 4.70	6.28	O=C1Nc2cc(C(=O)O)ccc2C1=Cc1cc2cc(OCCN3CCOCC3)ccc2[nH]1 [IN-031, 3-[5-(2-morpholin-4-yl-ethoxy)-1H-indol-2-ylmethylene]-2-oxo-2,3-dihydro-1H-indole-6-carboxylic acid]
< 4.00	6.77	NS(=O)(=O)c1ccc2c(c1)C(=Cc1cc3cc(OCCN4CCCC4)ccc3[nH]1)C(=O)N2 [IN-039, 2-oxo-3-[5-(2-pyrrolidin-1-yl-ethoxy)-1H-indol-2-ylmethylene]-2,3-dihydro-1H-indole-5-sulfonic acid amide]
< 4.70	5.36	COc1ccccc1-c1ccc2c(c1)NC(=O)C2=Cc1cc2cc(OCCN3CCOCC3)ccc2[nH]1 [IN-037, 6-(2-methoxy-phenyl)-3-[5-(2-morpholin-4-yl-ethoxy)-1H-indol-2-ylmethylene]-1,3-dihydro-indol-2-one]
5.02	6.80	CCN(CC)CCOc1ccc2[nH]c(C=C3C(=O)Nc4ccc(-c5ccccc5)cc43)cc2c1 [IN-019, 3-[5-(2-diethylamino-ethoxy)-1H-indol-2-ylmethylene]-5-phenyl-1,3-dihydro-indol-2-one]
< 4.00	< 4.70	Cc1[nH]c2ccccc2c1C=C1C(=O)Nc2ccc(S(=O)(=O)N(C)C)cc21 [IN-073, 3-(2-methyl-1H-indol-3-ylmethylene)-2-oxo-2,3-dihydro-1H-indole-5-sulfonic acid dimethylamide]
< 4.70	6.85	O=C1Nc2cc(-c3cccnc3)ccc2C1=Cc1cc2cc(OCCN3CCCC3)ccc2[nH]1 [IN-025, 6-pyridin-3-yl-3-[5-(2-pyrrolidin-1-yl-ethoxy)-1H-indol-2-ylmethylene]-1,3-dihydro-indol-2-one]
< 4.70	4.81	O=C1Nc2ccc(S(=O)(=O)N3CCCc4ccccc43)cc2C1=Cc1cc2cc(OCCN3CCOCC3)ccc2[nH]1 [IN-062, 5-(3,4-dihydro-2H-quinoline-1-sulfonyl)-3-[5-(2-morpholin-4-yl-ethoxy)-1H-indol-2-ylmethylene]-1,3-dihydro-indol-2-one]
4.15	6.00	O=C1Nc2cc(-c3ccccc3)ccc2C1=Cc1cc2cc(OCCN3CCCC3)ccc2[nH]1 [IN-015, 6-phenyl-3-[5-(2-pyrrolidin-1-yl-ethoxy)-1H-indol-2-ylmethylene]-1,3-dihydro-indol-2-one]
6.06	6.41	O=C1Nc2ccc(S(=O)(=O)Nc3cccc(Cl)c3)cc2C1=Cc1cc2cc(OCCN3CCCC3)ccc2[nH]1 [IN-047, 2-oxo-3-[5-(2-pyrrolidin-1-yl-ethoxy)-1H-indol-2-ylmethylene]-2,3-dihydro-1H-indole-5-sulfonic acid (3-chloro-phenyl)-amide]
4.79	6.51	CN(C)CCOc1ccc2[nH]c(C=C3C(=O)Nc4ccc(-c5ccccc5)cc43)cc2c1 [IN-005, 3-[5-(2-dimethylamino-ethoxy)-1H-indol-2-ylmethylene]-5-phenyl-1,3-dihydro-indol-2-one]
